Results: paper PMC3410885, “6-Arylpyrido[2,3-d]pyrimidines as Novel ATP-Competitive Inhibitors of Bacterial D-Alanine:D-Alanine Ligase” (PLoS ONE, 2012)
pIC50: −log10 of the molar value. In brackets after ≈: the same amount, converted by molar mass. Values belong to the compound of their own block, whether it stands above or below them.

Assays:
E. coli AB734 = experiment: MIC by broth microdilution, E. coli AB734; assay type: cell-based; conditions: for MIC: Escherichia coli, AB734, read-out: MIC AB734; for MIC AB734 +PMBN: with polymyxin B nonapeptide (4 μg/ml)
Protocol: (§1) Selected DdlB inhibitors were tested for their antibacterial activity against two E. coli strains E. coli 1411 and E. coli AB734 (Table 2). […] Additionally, growth inhibition of efflux pump-deficient strains SM1411 (acrAB deficient derivative of 1411) and ES100 (tolC deficient derivative of AB734) was measured, and MICs were repeated for each strain in the presence of polymyxin B nonapeptide (PMBN) to assess the impact of outer-membrane permeability on antimicrobial activity.
(§2) Minimum inhibitory concentrations (MICs) were determined by broth microdilution against E. coli 1411, SM1411 (acrAB deficient derivative of 1411), AB734 and ES100 (tolC deficient derivative of AB734) according to CLSI guidelines. MICs were repeated for each strain in the presence of polymyxin B nonapeptide (4 μg/ml) to assess the impact of outer-membrane permeability on antimicrobial activity.

[1] = test system: SM1411 (acrAB deficient derivative of 1411); experiment: MIC by broth microdilution, SM1411; assay type: cell-based, E. coli; conditions: for MIC: Escherichia coli, read-out: MIC SM1411 (acrAB); for MIC SM1411 +PMBN: with polymyxin B nonapeptide (4 μg/ml)
Protocol: as §1, §2

E. coli DdlB = target: T1, E. coli DdlB (Escherichia coli, UniProt P07862); experiment: Colorimetric malachite green inhibition assay of DdlB; assay type: biochemical; conditions: for pIC50: malachite green assay, 700 μM D-Ala, 500 μM ATP, 37°C, 20 min, read-out: inhibitory activity on DdlB: IC50
T1 construct: polyhistidine (His) tag (N); made in house; host or cells: E. coli BL21(λDE3), vector pQE-30 UA (Qiagen)
Protocol: All of the synthesized 6-arylpyrido[2,3-d]pyrimidines 11–36 were assayed for in vitro inhibitory activity on E. coli DdlB by detecting orthophosphate generated during the enzymatic reaction using a Malachite green assay.
Inhibition of DdlB was measured at different inhibitor and ATP concentrations in order to determine Ki values and the mode-of-action of both compounds.
The target compounds were tested for their ability to inhibit the D-Ala-adding activity of DdlB ligase with the colorimetric malachite green method in which orthophosphate generated during the reaction is measured. Each compound was tested in duplicate at 100, 250 or 500 μM in a mixture, final volume 50 μL, containing 50 mM Hepes (pH 8.0), 5 mM MgCl2, 10 mM (NH4)2SO4, 10 mM KCl, 700 μM D-Ala, 500 μM ATP, purified His-tagged DdlB (diluted in 50 mM Hepes (pH 7.2) and 1 mM DTT) and the test compound dissolved in DMSO. The final concentration of DMSO was 5% (v/v). The reaction mixture was incubated at 37°C for 20 min, then quenched with 100 μL of Biomol reagent and absorbance at 650 nm was measured after 5 min. To exclude possible promiscuous inhibitors, all compounds were tested in the presence of Triton-114 (0.005%). Residual activities were calculated relative to control assays without the compounds and with DMSO.

E. coli 1411 = experiment: MIC by broth microdilution, E. coli 1411; assay type: cell-based; conditions: for MIC: Escherichia coli, 1411, read-out: MIC 1411; for MIC 1411 +PMBN: with polymyxin B nonapeptide (4 μg/ml)
Protocol: as §1, §2

[2] = test system: ES100 (tolC deficient derivative of AB734); experiment: MIC by broth microdilution, ES100; assay type: cell-based, E. coli; conditions: for MIC: Escherichia coli, read-out: MIC ES100 (tolC); for MIC ES100 +PMBN: with polymyxin B nonapeptide (4 μg/ml)
Protocol: as §1, §2

[3] = test system: E. coli strains (1411, AB734, SM1411, ES100); experiment: Antibacterial activity stated for the E. coli strains together; assay type: cell-based
Protocol: as §1, §2

SMILES: COc1cc(OC)cc(-c2cc3cnc(N)nc3nc2N)c1 [Compound 13, 6-(3,5-dimethoxyphenyl)pyrido[2,3-d]pyrimidine-2,7-diamine]
- MIC (E. coli AB734): > 256 mg/L
- MIC AB734 +PMBN (E. coli AB734): >256 mg/L
- MIC [1]: > 256 mg/L
- MIC SM1411 +PMBN [1]: 128 µg/mL (≈ 431 µM)
- pIC50 (E. coli DdlB): 3.04
- MIC (E. coli 1411): > 256 mg/L
- MIC 1411 +PMBN (E. coli 1411): >256 mg/L
- MIC [2]: > 256 mg/L
- MIC ES100 +PMBN [2]: 64 µg/mL (≈ 215 µM)

- melting point: 146 to 148 °C
SMILES: COc1cc(OC)cc(-c2cc3cnc(NCCCN4CCOCC4)nc3nc2N)c1 [Compound 15, 6-(3,5-dimethoxyphenyl)-N2-(3-morpholinopropyl)pyrido[2,3-d]pyrimidine-2,7-diamine]

SMILES: COc1cc(OC)cc(-c2cc3cnc(NCCCN4CCOCC4)nc3nc2NC(=O)NC(C)(C)C)c1 [Compound 16, 1-tert-butyl-3-(6-(3,5-dimethoxyphenyl)-2-(3-morpholinopropylamino)pyrido[2,3-d]pyrimidin-7-yl)urea]
- MIC (E. coli AB734): > 256 mg/L
- MIC AB734 +PMBN (E. coli AB734): >256 mg/L
- MIC [1]: > 256 mg/L
- MIC SM1411 +PMBN [1]: 128 µg/mL (≈ 244 µM)
- antibacterial activity (in words) ([3]; efflux-deficient, permeabilised cells): weak antibacterial activity
- pIC50 (E. coli DdlB): 3.88
- fold improved IC50 against DdlB compared to lead compound 33 (E. coli DdlB; ratio of IC50 values, 16 against 33): 3.4 fold
- MIC (E. coli 1411): > 256 mg/L
- MIC 1411 +PMBN (E. coli 1411): >256 mg/L
- MIC [2]: > 256 mg/L
- MIC ES100 +PMBN [2]: 128 µg/mL (≈ 244 µM)

- melting point: 92 to 95 °C
SMILES: COc1cc(OC)cc(-c2cc3cnc(NCCCN(C)C)nc3nc2N)c1 [Compound 17, 6-(3,5-dimethoxyphenyl)-N2-(3-(dimethylamino)propyl)pyrido[2,3-d]pyrimidine-2,7-diamine]

- melting point: > 300 °C
SMILES: Nc1ncc2cc(-c3cc(C(F)(F)F)cc(C(F)(F)F)c3)c(N)nc2n1 [Compound 18, 6-(3,5-bis(trifluoromethyl)phenyl)pyrido[2,3-d]pyrimidine-2,7-diamine]

- melting point: > 300 °C
SMILES: Nc1ncc2cc(-c3cc(F)cc(F)c3)c(N)nc2n1 [Compound 20, 6-(3,5-difluorophenyl)pyrido[2,3-d]pyrimidine-2,7-diamine]

SMILES: Nc1ncc2cc(-c3cc(Cl)cc(Cl)c3)c(N)nc2n1 [Compound 22, 6-(3,5-dichlorophenyl)pyrido[2,3-d]pyrimidine-2,7-diamine]
- MIC ([3]; Escherichia coli, read-out: MICs against all strains): > 256 mg/L
- melting point: > 300 °C

SMILES: Nc1ncc2cc(-c3c(Cl)cccc3Cl)c(N)nc2n1 [Compound 26, 6-(2,6-dichlorophenyl)pyrido[2,3-d]pyrimidine-2,7-diamine]
- MIC [1]: 2 mg/L (≈ 6.53 µM)
- MIC SM1411 +PMBN [1]: 0,5 μg/ml
- pIC50 (E. coli DdlB): 3.28
- MIC [2]: 1 mg/L (≈ 3.27 µM)
- MIC ES100 +PMBN [2]: 0,25 μg/ml

- melting point: 124 to 127 °C
SMILES: Nc1nc2nc(NCCCN3CCOCC3)ncc2cc1-c1c(Cl)cccc1Cl [Compound 28, 6-(2,6-dichlorophenyl)-N2-(3-morpholinopropyl)pyrido[2,3-d]pyrimidine-2,7-diamine]

- melting point: 241 to 244 °C
SMILES: CN(C)CCCNc1ncc2cc(-c3c(Cl)cccc3Cl)c(N)nc2n1 [Compound 30, 6-(2,6-dichlorophenyl)-N2-(3-(dimethylamino)propyl)pyrido[2,3-d]pyrimidine-2,7-diamine]

- melting point: > 300 °C
SMILES: Nc1ncc2cc(-c3c(F)cccc3Cl)c(N)nc2n1 [Compound 31, 6-(2-chloro-6-fluorophenyl)pyrido[2,3-d]pyrimidine-2,7-diamine]

- melting point: > 300 °C
SMILES: CC(C)(C)NC(=O)Nc1nc2nc(N)ncc2cc1-c1c(F)cccc1Cl [Compound 32, 1-(2-amino-6-(2-chloro-6-fluorophenyl)pyrido[2,3-d]pyrimidin-7-yl)-3-tert-butylurea]

- melting point: > 300 °C
SMILES: CC(C)(C)NC(=O)Nc1nc2nc(N)ncc2cc1-c1ccc2c(c1)OCO2 [Compound 36, 1-(2-amino-6-(benzo[d][1,3]dioxol-5-yl)pyrido[2,3-d]pyrimidin-7-yl)-3-tert-butylurea]
